As a reminder, the AC50 is the midpoint of the concentration-response curve, whichever way the signal moves. As usually defined, the EC50 is the concentration at which the effect is half-maximal. Usually Ki stands for the dissociation constant of the complex between target and ligand, obtained from inhibition or displacement.

Active and inactive are the calls of the source.

A short description of assay [1]: blockade of melanocortin 4 receptor signaling – cell-based, plate reader, cherry pick, counter-screen for LGR2 antagonist project, dose response (AID 743444).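 Note: transfected HEK 293 cells stimulated with alpha-MSH peptide; potency of inhibitors of the alpha-MSH evoked signal.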 In kind it is functional. (The purpose of a counterscreen is to sort out artefacts and off-target activity.)
Assay [2] concerns the target T1, Interleukin-8 (Homo sapiens, UniProt P10145). The assay is described as follows: Dose Response confirmation of uHTS small molecule hits for cystic fibrosis induced NFkb Inhibitors in a TNFa-induced IL8 counterscreen. The assay is classed as functional. As to conditions: read-out: IC50_Mean.
For assay [3], the target named is T2, Microphthalmia-associated transcription factor (Homo sapiens, UniProt O75030).
T2 sequence (O75030 whole entry): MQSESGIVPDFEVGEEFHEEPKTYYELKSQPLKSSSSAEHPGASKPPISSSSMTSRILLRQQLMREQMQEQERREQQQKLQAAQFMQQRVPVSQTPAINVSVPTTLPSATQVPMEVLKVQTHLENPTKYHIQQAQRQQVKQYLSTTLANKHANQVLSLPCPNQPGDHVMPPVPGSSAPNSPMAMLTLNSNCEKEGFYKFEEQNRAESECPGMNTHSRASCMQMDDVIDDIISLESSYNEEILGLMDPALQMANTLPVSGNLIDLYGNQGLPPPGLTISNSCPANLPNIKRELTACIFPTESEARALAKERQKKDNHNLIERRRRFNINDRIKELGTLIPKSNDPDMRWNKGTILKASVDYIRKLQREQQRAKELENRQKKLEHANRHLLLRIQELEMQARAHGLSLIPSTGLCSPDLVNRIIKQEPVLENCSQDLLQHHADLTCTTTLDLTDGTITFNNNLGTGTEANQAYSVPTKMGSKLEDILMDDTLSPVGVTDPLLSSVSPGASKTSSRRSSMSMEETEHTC
The assay is described as follows: reducers of TRPM1 reporter luminescence, concentration series – cell-based, SK-MEL-5, cherry-picked, set 3, MITF inhibitor project, dose response (AID 493073).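 Note: SK-MEL-5 melanoma cells with luciferase driven by the MITF target TRPM1 promoter.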 In kind it is functional.

Assay [4] in a line: viability loss in HEK293 cells – cell-based, plate reader, cherry-picked samples, cytotoxicity control, dose response (AID 743446). In kind it is functional.
Assay [5] has as its target T1, Interleukin-8. The assay is described as follows: Dose Response confirmation of uHTS small molecule hits for cystic fibrosis induced NFkb Inhibitors in a PAF-induced IL8 counterscreen. As to conditions: read-out: IC50_Mean. In kind it is functional.
Assay [6] in a line: loss of viability in HepG2 cells – cell-based, CellTiter-Glo, cherry-picked, cytotoxicity control for Shn3 inhibitor project, dose response (AID 624134). The assay is classed as functional.
Assay [7] is described as follows: toxicity toward HepG2 liver cells – cell-based, plate reader, cherry-pick, antagonist series, cytotoxicity control, dose response (AID 743416). The assay is classed as functional.
The nature of assay [8]: A549 cell cytotoxicity, dose response, cytotoxicity control, plate reader, cherry-pick, antagonist series (AID 743412). The assay is classed as functional, cell-based.
Assay [9] has as its target T3, Heat shock factor protein 1 (Mus musculus, UniProt P38532).
T3 sequence (P38532 whole entry): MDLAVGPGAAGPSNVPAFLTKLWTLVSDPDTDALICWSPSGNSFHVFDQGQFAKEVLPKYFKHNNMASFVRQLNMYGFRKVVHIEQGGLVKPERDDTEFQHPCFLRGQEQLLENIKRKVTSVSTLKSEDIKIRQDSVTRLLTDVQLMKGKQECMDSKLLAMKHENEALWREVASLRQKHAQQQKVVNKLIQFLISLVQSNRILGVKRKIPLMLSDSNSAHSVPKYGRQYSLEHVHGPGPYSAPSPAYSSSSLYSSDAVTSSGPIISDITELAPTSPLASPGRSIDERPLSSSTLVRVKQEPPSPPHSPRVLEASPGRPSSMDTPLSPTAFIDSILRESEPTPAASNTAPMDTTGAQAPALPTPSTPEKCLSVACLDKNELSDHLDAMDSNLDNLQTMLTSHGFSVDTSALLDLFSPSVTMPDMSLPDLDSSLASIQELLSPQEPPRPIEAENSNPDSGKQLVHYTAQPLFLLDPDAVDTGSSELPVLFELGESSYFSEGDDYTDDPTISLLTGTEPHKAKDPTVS
As to the kind of experiment: decrease of HSF1-responsive luciferase luminescence – cell-based, NIH3T3, dose retest, confirmation (AID 2382).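 Note: NIH3T3 fibroblasts with HSF1-driven luciferase reporter stressed by proteasome inhibitor MG132; luminescence from HSF1-driven luciferase expression after 8 hours of MG132 stress.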 The assay is classed as functional.

For another assay, the target named is Paired box protein Pax-8 (Homo sapiens, UniProt Q06710). As to the kind of experiment: PAX8 transcriptional activity inhibition in RMG-I – RMG-I cells, luciferase, cherry-pick, dose response (AID 687027).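 Note: luciferase reporter driven by Pax8 target thyroperoxidase promoter measured by SteadyGlo luminescence.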 In kind it is functional, cell-based.
Assay [10] in a line: reduction of Shn3 3'UTR-driven luciferase in osteoblasts – cell-based, Clone20 osteoblasts, firefly luciferase, cherry-picked, dose response (AID 624132).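 Note: firefly luciferase luminescence from reporter carrying the Shn3 3'UTR in osteoblasts.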 In kind it is functional.
The nature of assay [11]: blockers of bursicon-stimulated LGR2 cAMP reporter – cell-based, HEK293, CRE-luciferase reporter, cherry pick, set 2, dose response (AID 743343).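 Note: transfected cells were stimulated with diluted bursicon conditioned medium after compound addition.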 The assay is classed as functional. In general terms: In a reporter assay the amount or activity of a reporter protein is the signal.
Assay [12] in a line: non-specific 3'UTR reporter inhibition in Clone20-Shn3RL – cell-based, Renilla luciferase, cherry-picked, counter-screen for Shn3 inhibitor project, dose response (AID 624133). In kind it is functional.
A short description of assay [13]: Fluorescence-based cell-based high throughput dose response assay for inhibitors of the interaction of nucleotide-binding oligomerization domain containing 2 (NOD2) and the receptor-interacting serine-threonine kinase 2 (RIPK2). The conditions noted are these: Homo sapiens. In kind it is functional.
Assay [14] deals with BJ. As to the kind of experiment: cells. In kind it is functional, cell-based. As to conditions: Homo sapiens.
The test system of assay [15] is BJ. The assay is described as follows: BJ-TERT fibroblast viability loss – cell-based, RAS-independent, luminescence, dose response (AID 1933). In kind it is functional. As to conditions: Homo sapiens.
Assay [16] can be described thus: microbe, parasite or virus in culture. The assay is classed as functional. As to conditions: Mycobacterium tuberculosis.
Assay [17] concerns BJ. As to the kind of experiment: BJ-TERT-LT-ST fibroblast viability loss – cell-based, RAS-independent, luminescence, dose response (AID 1935).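 Note: BJ fibroblasts immortalized with TERT plus LT and ST oncogenes.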 The assay is classed as functional. The conditions noted are these: Homo sapiens.
The subject of a further assay is INS1. As to the kind of experiment: INS-1E survival protection against cytokine death – cell-based, luminescence, retest, dose response (AID 449756).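 Note: cell death triggered by IL-1 beta plus TNF-alpha plus IFN-gamma mixture; protective hits raise ATP signal compared with cytokine alone wells.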 As to conditions: Rattus norvegicus. The assay is classed as functional.
Assay [18] has as its system BJ. The assay is described as follows: growth inhibition of engineered Ras-driven BJ cells – cell-based, alamar blue fluorescence, cherrypicked samples, dose response (AID 2631).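 Note: confirmatory dose-response assay in RAS-dependent BJ fibroblasts engineered with TERT, LT and ST, with cytotoxicity read by fluorescence.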 The assay is classed as functional. The conditions noted are these: Homo sapiens. In general terms: Alamar Blue is a resazurin reagent that responds to reducing activity.
Assay [19] can be described thus: DRD fibroblast viability loss – cell-based, non-viral oncogenic, luminescence, dose response (AID 1934). As to conditions: Homo sapiens. The assay is classed as functional.
Assay [20] concerns the target Leukocyte tyrosine kinase receptor (Homo sapiens, UniProt P29376). The assay is described as follows: Navigating the Kinome. Panel member name: LTK. In kind it is functional.
For assay [21], the target named is Serine/threonine-protein kinase TAO1 (Homo sapiens, UniProt Q7L7X3). The assay is classed as functional.
Assay [22] has as its target Melanin-concentrating hormone receptor 1 (Homo sapiens, UniProt Q99705). The assay is described as follows: Late-stage fluorescence-based counterscreen for antagonists of the G-protein coupled receptor 7 (GPR7): cell-based dose response assay to identify antagonists of the melanin-concentrating hormone receptor 1 (MCHR1) Set 5. The assay is classed as functional.
Assay [23] has as its target T4, Neuropeptides B/W receptor type 1 (Homo sapiens, UniProt P48145).
T4 sequence (P48145 whole entry): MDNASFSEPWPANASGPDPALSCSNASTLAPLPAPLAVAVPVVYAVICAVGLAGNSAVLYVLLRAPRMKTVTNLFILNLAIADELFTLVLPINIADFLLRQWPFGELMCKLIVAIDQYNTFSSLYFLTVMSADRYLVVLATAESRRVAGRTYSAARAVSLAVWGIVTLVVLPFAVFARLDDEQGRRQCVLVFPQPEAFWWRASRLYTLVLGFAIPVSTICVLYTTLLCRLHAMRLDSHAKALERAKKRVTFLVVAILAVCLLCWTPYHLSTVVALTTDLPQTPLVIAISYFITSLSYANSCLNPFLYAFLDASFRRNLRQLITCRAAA
The assay is described as follows: human NPBW1 receptor blockade, IC50 – cell-based, fluorescence, dose response, set 5, late-stage follow-up (AID 588566). In kind it is functional.

Melanin-concentrating hormone receptor 1, sequence (Q99705 whole entry): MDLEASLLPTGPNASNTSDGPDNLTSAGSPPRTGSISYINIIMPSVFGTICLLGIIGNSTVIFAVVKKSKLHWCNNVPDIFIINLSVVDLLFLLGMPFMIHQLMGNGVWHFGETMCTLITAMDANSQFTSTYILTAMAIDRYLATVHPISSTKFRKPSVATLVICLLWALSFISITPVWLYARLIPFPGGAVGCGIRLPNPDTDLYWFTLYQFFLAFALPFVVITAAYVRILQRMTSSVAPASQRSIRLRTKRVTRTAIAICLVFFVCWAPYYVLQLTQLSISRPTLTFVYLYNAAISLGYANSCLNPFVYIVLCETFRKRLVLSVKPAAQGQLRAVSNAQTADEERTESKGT
T1 sequence (P10145 whole entry): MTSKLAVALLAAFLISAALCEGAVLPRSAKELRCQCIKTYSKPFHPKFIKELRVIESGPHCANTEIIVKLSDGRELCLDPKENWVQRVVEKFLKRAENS
Serine/threonine-protein kinase TAO1, sequence (Q7L7X3 whole entry): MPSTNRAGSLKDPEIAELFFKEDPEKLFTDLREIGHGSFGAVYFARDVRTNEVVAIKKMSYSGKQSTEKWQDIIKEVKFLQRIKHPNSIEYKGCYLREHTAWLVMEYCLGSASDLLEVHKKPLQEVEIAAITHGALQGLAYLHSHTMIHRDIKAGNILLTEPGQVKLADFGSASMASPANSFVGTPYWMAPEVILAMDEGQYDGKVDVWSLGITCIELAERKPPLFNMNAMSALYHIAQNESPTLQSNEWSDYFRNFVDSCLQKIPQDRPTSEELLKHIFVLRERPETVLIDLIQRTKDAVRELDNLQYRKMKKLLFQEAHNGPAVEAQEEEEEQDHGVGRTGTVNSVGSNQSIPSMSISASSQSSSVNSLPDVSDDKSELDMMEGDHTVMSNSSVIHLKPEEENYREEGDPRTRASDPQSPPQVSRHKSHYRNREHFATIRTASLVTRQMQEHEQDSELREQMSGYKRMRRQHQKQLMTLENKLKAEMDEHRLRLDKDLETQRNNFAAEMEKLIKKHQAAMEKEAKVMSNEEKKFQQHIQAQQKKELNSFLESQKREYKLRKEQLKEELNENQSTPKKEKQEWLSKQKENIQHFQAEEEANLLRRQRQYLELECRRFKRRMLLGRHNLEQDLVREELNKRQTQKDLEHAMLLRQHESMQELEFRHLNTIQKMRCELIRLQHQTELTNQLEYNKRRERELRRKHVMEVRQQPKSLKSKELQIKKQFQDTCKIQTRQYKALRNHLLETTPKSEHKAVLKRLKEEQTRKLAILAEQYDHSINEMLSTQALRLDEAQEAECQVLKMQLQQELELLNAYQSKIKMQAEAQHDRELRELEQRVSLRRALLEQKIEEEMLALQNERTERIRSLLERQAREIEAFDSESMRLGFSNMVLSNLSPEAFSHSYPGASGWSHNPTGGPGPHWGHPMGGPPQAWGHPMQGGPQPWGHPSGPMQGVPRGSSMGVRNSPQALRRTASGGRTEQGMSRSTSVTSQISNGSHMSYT
Paired box protein Pax-8, sequence (Q06710 whole entry): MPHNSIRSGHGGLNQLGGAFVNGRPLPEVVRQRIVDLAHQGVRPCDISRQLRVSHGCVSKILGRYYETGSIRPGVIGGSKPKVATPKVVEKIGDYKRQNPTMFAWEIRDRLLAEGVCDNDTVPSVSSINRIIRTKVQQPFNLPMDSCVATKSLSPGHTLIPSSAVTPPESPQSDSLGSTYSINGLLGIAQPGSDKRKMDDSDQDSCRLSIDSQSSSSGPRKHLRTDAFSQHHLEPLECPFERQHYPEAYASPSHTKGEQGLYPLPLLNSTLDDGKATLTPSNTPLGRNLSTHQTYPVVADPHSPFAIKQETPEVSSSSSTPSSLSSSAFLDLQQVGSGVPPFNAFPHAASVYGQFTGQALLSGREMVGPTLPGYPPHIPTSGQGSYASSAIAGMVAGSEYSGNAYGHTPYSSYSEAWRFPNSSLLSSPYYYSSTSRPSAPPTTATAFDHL
Leukocyte tyrosine kinase receptor, sequence (P29376 whole entry): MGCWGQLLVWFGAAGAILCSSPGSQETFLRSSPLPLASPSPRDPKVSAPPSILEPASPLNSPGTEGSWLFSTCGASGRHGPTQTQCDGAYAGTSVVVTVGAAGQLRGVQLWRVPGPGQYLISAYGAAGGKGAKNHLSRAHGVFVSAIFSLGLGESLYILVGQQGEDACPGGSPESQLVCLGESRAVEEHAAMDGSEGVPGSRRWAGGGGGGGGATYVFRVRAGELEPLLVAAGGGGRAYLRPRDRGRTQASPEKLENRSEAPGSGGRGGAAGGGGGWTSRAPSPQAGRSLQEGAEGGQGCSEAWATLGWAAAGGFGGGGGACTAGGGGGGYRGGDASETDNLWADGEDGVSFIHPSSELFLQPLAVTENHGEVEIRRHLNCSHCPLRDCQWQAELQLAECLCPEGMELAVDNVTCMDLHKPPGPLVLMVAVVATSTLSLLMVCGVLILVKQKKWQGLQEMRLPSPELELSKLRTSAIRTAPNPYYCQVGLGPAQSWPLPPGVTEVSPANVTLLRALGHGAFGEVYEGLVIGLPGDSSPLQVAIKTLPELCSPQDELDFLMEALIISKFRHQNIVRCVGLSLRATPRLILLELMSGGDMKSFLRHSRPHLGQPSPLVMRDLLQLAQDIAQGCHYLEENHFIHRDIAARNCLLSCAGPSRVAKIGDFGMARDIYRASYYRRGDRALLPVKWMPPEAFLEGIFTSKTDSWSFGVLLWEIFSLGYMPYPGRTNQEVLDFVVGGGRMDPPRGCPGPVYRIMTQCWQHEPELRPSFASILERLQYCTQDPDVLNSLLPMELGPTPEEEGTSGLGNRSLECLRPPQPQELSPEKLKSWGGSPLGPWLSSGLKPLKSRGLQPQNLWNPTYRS

As for `O=C(c1nnsc1S(=O)(=O)c1ccc(Cl)cc1)N1CCOCC1`, the AC50 in [1] is 5.75 µM (active); in assay [3], 9.51 µM (active); in assay [4], 15.3 µM (active); in [6], 31.7 µM (active); in assay [7], 15.3 µM (active); in [8] it was 13.9 µM (active). The AC50 on Paired box protein Pax-8 is 6.05 µM (active); in assay [10], 7.74 µM (active); in assay [11], 4.76 µM (active); in assay [12], 12.2 µM (active). The values for the IC50 at Interleukin-8 [2] and at Interleukin-8 [5] were 1.19 µM (active) and 1.25 µM (active), respectively. In addition, the half-maximal effective concentration (EC50) in assay [9] is > 195 µM (not active).
Take `CCOc1cc(/C=C2\COc3ccccc3C2=O)cc(Br)c1OCC(=O)N(C)C`: in assay [13], the IC50 was 6.43 µM (active). Besides, the EC50 with BJ [14] is 8.64 µM (active); in the assay with BJ [15] it was 5.54 µM (inconclusive); with BJ [17] it was 16.4 µM (active); in the assay with BJ [18] it was 2.12 µM (active); in [19], 5.72 µM (active). Moreover, in assay [16], the CC50 is 15.2 µM (active). Further, the concentration at half-maximal activity (AC50) in the assay with INS1 was 7.22 µM (active).
Take `O=C(O)C1CN(Cc2ccc(OCc3ccc(Cl)cc3Cl)cc2)C1`: the inhibition constant Ki in assay [20] is 2.51 µM (active); in [21], 1 µM (active).
Regarding `CCOc1ccc(Oc2c(N3CCCCC3)c(Br)nn(Cc3cccc4ccccc34)c2=O)cc1`, the IC50 in [22] and in assay [23] was > 20 µM (inactive) in each case.
On to `COc1cc(OC)cc(Oc2c(Cl)cnn(Cc3cccc4ccccc34)c2=O)c1`, for which the results for the IC50 in assay [22] and in assay [23] were > 20 µM (inactive) and 10.1 µM (inactive), respectively.

The values above are taken from ChEMBL document CHEMBL1201862, “PubChem BioAssay data set” (2004).
